Source: ChEMBL document CHEMBL4808176, “Optimization of Truncated Glucagon Peptides to Achieve Selective, High Potency, Full Antagonists” (J Med Chem, 2021)
Peptide text beside a SMILES is read from it.

Key:
[1] = target: T1, Glucagon receptor (Homo sapiens, UniProt P47871); assay: Displacement of 125I-glucagon from human GCGR expressed in HEK293 cells membranes incubated for 6 hrs by liquid scintillation counting method; format: cell membranes, Membrane
[2] = target: T1, Glucagon receptor; assay: Antagonist activity at human GCGR expressed in HEK293 cells assessed as inhibition of glucogon-induced cAMP production; format: functional, cell-based
[3] = target: T1, Glucagon receptor; assay: Antagonist activity at human GCGR expressed in HEK293 cells assessed as inhibition of glucogon-induced cAMP production by schild plot analysis; format: functional, cell-based; conditions: filed as antagonist, dose 0.1-1.6 µM

T1 sequence (P47871 whole entry): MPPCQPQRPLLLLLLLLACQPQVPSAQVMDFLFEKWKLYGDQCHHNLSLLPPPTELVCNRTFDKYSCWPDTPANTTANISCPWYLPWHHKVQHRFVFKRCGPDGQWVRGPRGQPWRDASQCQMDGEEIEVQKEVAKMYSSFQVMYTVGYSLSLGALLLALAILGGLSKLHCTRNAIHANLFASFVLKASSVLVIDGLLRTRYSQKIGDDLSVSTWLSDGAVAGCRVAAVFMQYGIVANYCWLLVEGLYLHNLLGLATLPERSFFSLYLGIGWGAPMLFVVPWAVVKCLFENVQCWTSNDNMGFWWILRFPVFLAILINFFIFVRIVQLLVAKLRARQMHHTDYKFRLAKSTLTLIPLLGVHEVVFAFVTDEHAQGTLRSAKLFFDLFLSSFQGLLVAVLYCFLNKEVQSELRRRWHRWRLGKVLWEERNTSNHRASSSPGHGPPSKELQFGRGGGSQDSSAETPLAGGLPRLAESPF

Compound	IC50 [1] [nM]	IC50 [2] [nM]	Activity [3]
CSCC[C@H](NC(=O)[C@H](CC(C)C)NC(=O)[C@H](Cc1c[nH]c2ccccc12)NC(=O)[C@H](CCC(N)=O)NC(=O)[C@@H](NC(=O)[C@H](Cc1ccccc1)NC(=O)[C@H](CC(=O)O)NC(=O)[C@H](CCC(N)=O)NC(=O)[C@H](C)NC(=O)[C@H](CCCNC(=N)N)NC(=O)[C@H](CCCNC(=N)N)NC(=O)[C@H](CO)NC(=O)[C@H](CC(=O)O)NC(=O)[C@H](CC(C)C)NC(=O)[C@H](Cc1ccc(O)cc1)NC(=O)[C@H](CCCCN)NC(=O)[C@H](CO)NC(=O)[C@H](Cc1ccc(O)cc1)NC(=O)[C@H](CCC(=O)O)NC(=O)[C@H](CO)NC(=O)[C@@H](NC(=O)C(C)Cc1ccccc1)[C@@H](C)O)C(C)C)C(=O)N[C@@H](CC(N)=O)C(=O)N[C@H](C(N)=O)[C@@H](C)O (some centres not stated) (HELM PEPTIDE1{[CC(Cc1ccccc1)C(=O)[*:2]].T.S.E.Y.S.K.Y.L.D.S.R.R.A.Q.D.F.V.Q.W.L.M.N.T.[am]}$$$$V2.0)	114	47.7	
CSCC[C@H](NC(=O)[C@H](CC(C)C)NC(=O)[C@H](Cc1c[nH]c2ccccc12)NC(=O)[C@H](CCC(N)=O)NC(=O)[C@@H](NC(=O)[C@H](Cc1ccccc1)NC(=O)[C@H](CC(=O)O)NC(=O)[C@H](CCC(N)=O)NC(=O)[C@H](C)NC(=O)[C@H](CCCNC(=N)N)NC(=O)[C@H](CCCNC(=N)N)NC(=O)[C@H](CO)NC(=O)[C@H](CC(=O)O)NC(=O)[C@H](CC(C)C)NC(=O)[C@H](Cc1ccc(O)cc1)NC(=O)[C@H](CCCCN)NC(=O)[C@H](CO)NC(=O)[C@H](Cc1ccc(O)cc1)NC(=O)[C@H](CCC(=O)O)NC(=O)[C@H](CO)NC(=O)[C@@H](NC(=O)[C@@H](N)Cc1ccc2ccccc2c1)[C@@H](C)O)C(C)C)C(=O)N[C@@H](CC(N)=O)C(=O)N[C@H](C(N)=O)[C@@H](C)O (HELM PEPTIDE1{[N[C@@H](Cc1ccc2ccccc2c1)C(=O)[*:2]].T.S.E.Y.S.K.Y.L.D.S.R.R.A.Q.D.F.V.Q.W.L.M.N.T.[am]}$$$$V2.0)	95.2	44.1	
CSCC[C@H](NC(=O)[C@H](CC(C)C)NC(=O)[C@H](Cc1c[nH]c2ccccc12)NC(=O)[C@H](CCC(N)=O)NC(=O)[C@@H](NC(=O)[C@H](Cc1ccccc1)NC(=O)[C@H](CC(=O)O)NC(=O)[C@H](CCC(N)=O)NC(=O)[C@H](C)NC(=O)[C@H](CCCNC(=N)N)NC(=O)[C@H](CCCNC(=N)N)NC(=O)[C@H](CO)NC(=O)[C@H](CC(=O)O)NC(=O)[C@H](CC(C)C)NC(=O)[C@H](Cc1ccc(O)cc1)NC(=O)[C@H](CCCCN)NC(=O)[C@H](CO)NC(=O)[C@H](Cc1ccc(O)cc1)NC(=O)[C@H](CCC(=O)O)NC(=O)[C@H](CO)NC(=O)[C@@H](NC(=O)[C@@H](N)Cc1ccc(F)c(F)c1)[C@@H](C)O)C(C)C)C(=O)N[C@@H](CC(N)=O)C(=O)N[C@H](C(N)=O)[C@@H](C)O (HELM PEPTIDE1{[N[C@@H](Cc1ccc(F)c(F)c1)C(=O)[*:2]].T.S.E.Y.S.K.Y.L.D.S.R.R.A.Q.D.F.V.Q.W.L.M.N.T.[am]}$$$$V2.0)	36.7	192	
CSCC[C@H](NC(=O)[C@H](CC(C)C)NC(=O)[C@H](Cc1c[nH]c2ccccc12)NC(=O)[C@H](CCC(N)=O)NC(=O)[C@@H](NC(=O)[C@H](Cc1ccccc1)NC(=O)[C@H](CC(=O)O)NC(=O)[C@H](CCC(N)=O)NC(=O)[C@H](C)NC(=O)[C@H](CCCNC(=N)N)NC(=O)[C@H](CCCNC(=N)N)NC(=O)[C@H](CO)NC(=O)[C@H](CC(=O)O)NC(=O)[C@H](CC(C)C)NC(=O)[C@H](Cc1ccc(O)cc1)NC(=O)[C@H](CCCCN)NC(=O)[C@H](CO)NC(=O)[C@H](Cc1ccc(O)cc1)NC(=O)[C@H](CCC(=O)O)NC(=O)[C@H](CO)NC(=O)[C@@H](NC(=O)[C@@H](O)Cc1ccccc1)[C@@H](C)O)C(C)C)C(=O)N[C@@H](CC(N)=O)C(=O)N[C@H](C(N)=O)[C@@H](C)O (HELM PEPTIDE1{[O=C([C@@H](O)Cc1ccccc1)[*:2]].T.S.E.Y.S.K.Y.L.D.S.R.R.A.Q.D.F.V.Q.W.L.M.N.T.[am]}$$$$V2.0)		40	Dose-Dependent Effect
Ac-FTSEYSKYLDSRRAQDFVQWLMNT-NH2	37.1	130	
H-FTSEYSKYLDSRRAQDFVQWLMNT-NH2		79.1	Dose-Dependent Effect
